How the values were obtained:
[1] = biological target: Casein kinase I isoform delta (Homo sapiens) (UniProt P48730); experiment: CSNK1D SGC Tm panel (DSF); details: for ΔTm: Compound concentration 10.0 uM
[2] = biological target: Dual specificity mitogen-activated protein kinase kinase 1 (Homo sapiens) (UniProt Q02750); experiment: MAP2K1 SGC Tm panel (DSF); details: for ΔTm: Compound concentration 10.0 uM
[3] = biological target: Kappa-type opioid receptor (Homo sapiens) (UniProt P41145); details: Compound concentration 10.0 uM
[4] = biological target: Serine/threonine-protein kinase 26 (Homo sapiens) (UniProt Q9P289); experiment: MST4 SGC Tm panel (DSF); details: for ΔTm: Compound concentration 10.0 uM
[5] = biological target: Serine/threonine-protein kinase PAK 1 (Homo sapiens) (UniProt Q13153); experiment: PAK1 SGC Tm panel (DSF); details: for ΔTm: Compound concentration 10.0 uM
[6] = biological target: Cyclin-dependent kinase 16 (Homo sapiens) (UniProt Q00536); experiment: PCTK1 SGC Tm panel (DSF); details: for ΔTm: Compound concentration 10.0 uM
[7] = biological target: T1, Aurora kinase A (Homo sapiens) (UniProt O14965); experiment: STK6 SGC Tm panel (DSF); details: for ΔTm: Compound concentration 10.0 uM
T1 sequence (whole entry): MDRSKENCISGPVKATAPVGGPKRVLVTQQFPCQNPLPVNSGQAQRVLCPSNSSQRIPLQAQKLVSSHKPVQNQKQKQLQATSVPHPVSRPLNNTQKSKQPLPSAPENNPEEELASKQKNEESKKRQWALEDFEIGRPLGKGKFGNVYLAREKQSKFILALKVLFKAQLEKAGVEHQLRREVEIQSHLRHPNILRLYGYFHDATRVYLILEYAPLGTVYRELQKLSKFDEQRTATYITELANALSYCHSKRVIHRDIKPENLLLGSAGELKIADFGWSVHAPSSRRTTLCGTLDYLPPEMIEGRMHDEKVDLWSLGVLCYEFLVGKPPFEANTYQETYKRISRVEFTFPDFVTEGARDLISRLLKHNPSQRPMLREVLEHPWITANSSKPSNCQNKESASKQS

[8] = biological target: T2, Transcription intermediary factor 1-alpha (Homo sapiens) (UniProt O15164); experiment: TIF1 SGC Tm panel (DSF); details: for ΔTm: Compound concentration 10.0 uM
T2 sequence (whole entry): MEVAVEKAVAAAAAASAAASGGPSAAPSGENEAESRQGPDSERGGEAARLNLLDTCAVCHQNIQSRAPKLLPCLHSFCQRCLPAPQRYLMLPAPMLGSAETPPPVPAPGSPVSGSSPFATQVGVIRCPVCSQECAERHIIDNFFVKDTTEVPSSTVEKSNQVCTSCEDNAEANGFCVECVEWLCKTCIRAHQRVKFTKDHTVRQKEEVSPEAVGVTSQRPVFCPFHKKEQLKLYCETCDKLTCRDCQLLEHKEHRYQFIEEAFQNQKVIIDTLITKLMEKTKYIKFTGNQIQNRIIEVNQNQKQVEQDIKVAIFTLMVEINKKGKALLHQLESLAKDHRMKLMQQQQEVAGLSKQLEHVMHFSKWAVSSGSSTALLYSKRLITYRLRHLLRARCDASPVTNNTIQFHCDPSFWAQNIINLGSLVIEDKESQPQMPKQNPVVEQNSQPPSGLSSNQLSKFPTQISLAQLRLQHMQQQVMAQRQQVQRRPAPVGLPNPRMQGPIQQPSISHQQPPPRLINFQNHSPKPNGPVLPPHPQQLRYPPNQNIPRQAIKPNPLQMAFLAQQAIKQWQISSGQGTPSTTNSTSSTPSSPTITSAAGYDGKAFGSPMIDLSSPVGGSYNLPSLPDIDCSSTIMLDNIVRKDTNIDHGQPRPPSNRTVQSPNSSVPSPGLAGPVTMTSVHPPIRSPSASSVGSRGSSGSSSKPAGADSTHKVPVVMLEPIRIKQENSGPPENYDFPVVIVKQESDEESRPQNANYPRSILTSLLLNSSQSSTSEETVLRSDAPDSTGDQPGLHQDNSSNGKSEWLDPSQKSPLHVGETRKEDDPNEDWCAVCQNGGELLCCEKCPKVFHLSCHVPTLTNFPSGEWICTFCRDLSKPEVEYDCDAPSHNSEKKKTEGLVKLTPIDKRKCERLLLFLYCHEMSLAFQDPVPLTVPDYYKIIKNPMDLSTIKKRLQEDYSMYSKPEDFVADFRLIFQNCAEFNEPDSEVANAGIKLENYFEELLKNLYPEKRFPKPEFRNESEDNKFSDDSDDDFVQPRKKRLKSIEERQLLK

[9] = biological target: Transcription initiation factor TFIID subunit 1 (Homo sapiens) (UniProt P21675); experiment: TAF1 SGC Tm panel (DSF); details: for ΔTm: Compound concentration 10.0 uM
[10] = biological target: Mitogen-activated protein kinase 8 (Homo sapiens) (UniProt P45983); experiment: MAPK8 SGC Tm panel (DSF); details: for ΔTm: Compound concentration 10.0 uM
[11] = biological target: Alpha-2C adrenergic receptor (Homo sapiens) (UniProt P18825); details: Compound concentration 10.0 uM
[12] = biological target: Bromodomain-containing protein 4 (Homo sapiens) (UniProt O60885); experiment: BRD4 SGC Tm panel (DSF); details: for ΔTm: Compound concentration 10.0 uM
[13] = biological target: Serine/threonine-protein kinase Chk2 (Homo sapiens) (UniProt O96017); experiment: CHEK2 SGC Tm panel (DSF); details: for ΔTm: Compound concentration 10.0 uM
[14] = biological target: Alpha-1D adrenergic receptor (Homo sapiens) (UniProt P25100); details: Compound concentration 10.0 uM
[15] = biological target: Dual specificity tyrosine-phosphorylation-regulated kinase 1A (Homo sapiens) (UniProt Q13627); experiment: DYRK1A SGC Tm panel (DSF); details: for ΔTm: Compound concentration 10.0 uM
[16] = biological target: Histamine H3 receptor (Homo sapiens) (UniProt Q9Y5N1); details: Compound concentration 10.0 uM
[17] = biological target: Mitogen-activated protein kinase 10 (Homo sapiens) (UniProt P53779); experiment: MAPK10 SGC Tm panel (DSF); details: for ΔTm: Compound concentration 10.0 uM
Mitogen-activated protein kinase 10 (Homo sapiens), sequence (P53779 whole entry): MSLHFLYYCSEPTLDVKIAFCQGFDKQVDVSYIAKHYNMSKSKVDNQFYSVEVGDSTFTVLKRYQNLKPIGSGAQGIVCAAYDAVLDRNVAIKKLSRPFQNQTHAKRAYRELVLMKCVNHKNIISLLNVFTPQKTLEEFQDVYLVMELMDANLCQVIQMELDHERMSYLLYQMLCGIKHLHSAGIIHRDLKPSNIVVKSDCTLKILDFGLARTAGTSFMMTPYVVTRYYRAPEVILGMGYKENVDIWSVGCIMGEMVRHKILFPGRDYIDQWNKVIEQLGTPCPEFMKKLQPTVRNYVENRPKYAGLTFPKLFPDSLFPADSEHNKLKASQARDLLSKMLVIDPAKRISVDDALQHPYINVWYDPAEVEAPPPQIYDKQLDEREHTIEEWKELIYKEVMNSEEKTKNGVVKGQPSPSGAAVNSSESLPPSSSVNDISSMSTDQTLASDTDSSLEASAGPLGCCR

Transcription initiation factor TFIID subunit 1 (Homo sapiens), sequence (P21675 whole entry): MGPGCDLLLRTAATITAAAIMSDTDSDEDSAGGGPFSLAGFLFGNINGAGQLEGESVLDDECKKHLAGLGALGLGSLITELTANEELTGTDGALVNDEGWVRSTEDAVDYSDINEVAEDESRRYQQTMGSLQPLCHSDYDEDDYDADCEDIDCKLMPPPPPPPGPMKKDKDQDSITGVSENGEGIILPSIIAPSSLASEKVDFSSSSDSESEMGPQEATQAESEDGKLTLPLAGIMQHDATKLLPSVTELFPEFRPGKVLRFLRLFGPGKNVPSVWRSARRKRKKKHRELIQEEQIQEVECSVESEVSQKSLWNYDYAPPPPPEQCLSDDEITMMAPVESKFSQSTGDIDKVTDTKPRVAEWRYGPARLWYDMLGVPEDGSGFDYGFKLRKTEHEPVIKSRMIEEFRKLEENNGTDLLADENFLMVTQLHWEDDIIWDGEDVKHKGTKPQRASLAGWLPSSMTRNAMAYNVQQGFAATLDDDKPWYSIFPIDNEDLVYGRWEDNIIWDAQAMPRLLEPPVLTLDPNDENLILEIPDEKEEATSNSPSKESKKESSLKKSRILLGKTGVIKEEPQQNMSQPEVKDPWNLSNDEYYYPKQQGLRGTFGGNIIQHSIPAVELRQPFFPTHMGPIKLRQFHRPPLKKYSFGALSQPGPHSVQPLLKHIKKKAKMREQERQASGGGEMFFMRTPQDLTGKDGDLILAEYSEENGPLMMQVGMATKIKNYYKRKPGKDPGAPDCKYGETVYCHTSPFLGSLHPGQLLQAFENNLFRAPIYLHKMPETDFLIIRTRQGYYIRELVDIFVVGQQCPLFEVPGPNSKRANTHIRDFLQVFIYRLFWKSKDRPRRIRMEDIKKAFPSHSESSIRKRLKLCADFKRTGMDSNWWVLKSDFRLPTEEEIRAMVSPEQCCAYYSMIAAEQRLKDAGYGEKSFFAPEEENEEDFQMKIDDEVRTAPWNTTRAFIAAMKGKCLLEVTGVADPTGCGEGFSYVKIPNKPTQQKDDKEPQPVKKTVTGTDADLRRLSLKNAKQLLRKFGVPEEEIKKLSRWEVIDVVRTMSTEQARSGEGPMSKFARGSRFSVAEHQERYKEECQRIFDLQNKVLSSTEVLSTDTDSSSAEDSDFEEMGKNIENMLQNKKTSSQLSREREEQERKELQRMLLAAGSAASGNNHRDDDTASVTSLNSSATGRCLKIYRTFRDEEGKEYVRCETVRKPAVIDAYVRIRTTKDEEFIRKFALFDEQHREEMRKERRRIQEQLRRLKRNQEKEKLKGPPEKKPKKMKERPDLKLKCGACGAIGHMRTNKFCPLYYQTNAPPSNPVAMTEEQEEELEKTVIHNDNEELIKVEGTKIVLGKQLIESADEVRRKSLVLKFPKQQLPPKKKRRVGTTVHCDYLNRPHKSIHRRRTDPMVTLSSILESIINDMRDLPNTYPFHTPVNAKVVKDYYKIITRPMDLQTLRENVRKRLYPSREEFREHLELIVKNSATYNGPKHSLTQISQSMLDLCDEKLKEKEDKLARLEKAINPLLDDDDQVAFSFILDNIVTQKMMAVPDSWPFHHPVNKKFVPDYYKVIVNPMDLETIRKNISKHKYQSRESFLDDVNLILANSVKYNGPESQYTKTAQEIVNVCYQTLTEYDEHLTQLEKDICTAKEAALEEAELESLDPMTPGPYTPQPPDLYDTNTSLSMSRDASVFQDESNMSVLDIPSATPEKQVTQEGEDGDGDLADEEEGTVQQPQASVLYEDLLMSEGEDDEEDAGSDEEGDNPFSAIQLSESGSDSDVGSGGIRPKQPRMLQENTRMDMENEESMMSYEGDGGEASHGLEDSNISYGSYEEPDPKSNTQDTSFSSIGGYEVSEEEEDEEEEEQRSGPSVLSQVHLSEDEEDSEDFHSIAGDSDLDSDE
Mitogen-activated protein kinase 8 (Homo sapiens), sequence (P45983 whole entry): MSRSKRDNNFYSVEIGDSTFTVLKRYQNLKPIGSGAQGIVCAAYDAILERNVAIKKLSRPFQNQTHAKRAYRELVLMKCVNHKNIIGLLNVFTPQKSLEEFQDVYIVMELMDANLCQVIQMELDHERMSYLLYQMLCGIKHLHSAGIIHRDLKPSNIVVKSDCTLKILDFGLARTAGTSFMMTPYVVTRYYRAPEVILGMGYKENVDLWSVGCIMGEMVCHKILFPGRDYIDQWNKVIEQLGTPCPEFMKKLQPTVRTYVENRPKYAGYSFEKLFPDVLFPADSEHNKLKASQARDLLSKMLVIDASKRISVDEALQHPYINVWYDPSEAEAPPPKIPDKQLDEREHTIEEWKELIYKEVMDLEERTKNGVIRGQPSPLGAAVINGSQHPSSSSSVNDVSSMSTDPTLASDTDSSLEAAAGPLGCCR
Serine/threonine-protein kinase 26 (Homo sapiens), sequence (Q9P289 2-416 limits assumed): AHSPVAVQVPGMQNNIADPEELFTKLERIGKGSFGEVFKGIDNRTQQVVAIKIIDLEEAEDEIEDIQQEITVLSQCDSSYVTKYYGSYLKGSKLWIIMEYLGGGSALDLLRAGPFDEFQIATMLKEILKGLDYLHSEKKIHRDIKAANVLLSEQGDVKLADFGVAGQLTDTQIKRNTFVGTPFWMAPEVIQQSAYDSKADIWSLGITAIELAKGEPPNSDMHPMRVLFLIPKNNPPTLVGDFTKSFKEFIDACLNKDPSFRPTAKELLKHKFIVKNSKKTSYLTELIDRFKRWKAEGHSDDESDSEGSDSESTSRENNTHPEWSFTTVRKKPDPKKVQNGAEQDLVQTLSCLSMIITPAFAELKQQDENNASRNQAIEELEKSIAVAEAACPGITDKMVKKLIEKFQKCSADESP
Dual specificity mitogen-activated protein kinase kinase 1 (Homo sapiens), sequence (Q02750 whole entry): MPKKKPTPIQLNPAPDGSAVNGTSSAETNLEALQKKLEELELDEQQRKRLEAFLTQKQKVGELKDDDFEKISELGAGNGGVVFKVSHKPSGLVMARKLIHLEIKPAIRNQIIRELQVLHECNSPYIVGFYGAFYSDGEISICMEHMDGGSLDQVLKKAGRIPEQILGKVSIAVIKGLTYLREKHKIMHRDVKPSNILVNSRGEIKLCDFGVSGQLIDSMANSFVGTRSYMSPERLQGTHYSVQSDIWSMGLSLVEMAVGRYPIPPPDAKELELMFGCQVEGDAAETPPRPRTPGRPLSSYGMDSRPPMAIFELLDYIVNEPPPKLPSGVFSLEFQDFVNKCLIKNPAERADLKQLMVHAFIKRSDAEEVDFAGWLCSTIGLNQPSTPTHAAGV
Serine/threonine-protein kinase Chk2 (Homo sapiens), sequence (O96017 whole entry): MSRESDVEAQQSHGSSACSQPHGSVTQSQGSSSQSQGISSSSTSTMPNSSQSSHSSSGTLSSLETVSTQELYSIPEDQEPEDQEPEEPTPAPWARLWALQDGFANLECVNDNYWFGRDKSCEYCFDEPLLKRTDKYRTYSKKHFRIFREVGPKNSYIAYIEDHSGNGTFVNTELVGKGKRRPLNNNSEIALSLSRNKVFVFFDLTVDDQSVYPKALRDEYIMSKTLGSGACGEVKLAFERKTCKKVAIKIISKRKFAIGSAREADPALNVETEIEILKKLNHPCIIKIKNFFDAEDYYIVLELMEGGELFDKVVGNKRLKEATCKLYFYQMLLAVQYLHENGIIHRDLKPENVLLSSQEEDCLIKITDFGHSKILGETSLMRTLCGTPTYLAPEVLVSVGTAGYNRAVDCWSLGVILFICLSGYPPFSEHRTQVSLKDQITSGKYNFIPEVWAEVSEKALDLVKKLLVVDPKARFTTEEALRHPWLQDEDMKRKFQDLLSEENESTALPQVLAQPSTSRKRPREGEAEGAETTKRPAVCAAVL
Casein kinase I isoform delta (Homo sapiens), sequence (P48730 whole entry, looked up, canonical isoform): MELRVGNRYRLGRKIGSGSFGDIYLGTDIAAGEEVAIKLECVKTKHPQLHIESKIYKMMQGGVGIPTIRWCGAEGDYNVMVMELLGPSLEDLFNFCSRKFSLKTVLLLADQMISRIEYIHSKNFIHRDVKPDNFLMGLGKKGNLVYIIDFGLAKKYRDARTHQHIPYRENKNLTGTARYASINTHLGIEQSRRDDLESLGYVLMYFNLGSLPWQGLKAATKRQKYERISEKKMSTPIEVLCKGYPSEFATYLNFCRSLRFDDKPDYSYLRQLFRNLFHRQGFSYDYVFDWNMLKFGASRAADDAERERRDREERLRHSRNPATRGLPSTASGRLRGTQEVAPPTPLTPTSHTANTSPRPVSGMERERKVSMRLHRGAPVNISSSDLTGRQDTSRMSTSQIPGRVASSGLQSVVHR
Cyclin-dependent kinase 16 (Homo sapiens), sequence (Q00536 whole entry): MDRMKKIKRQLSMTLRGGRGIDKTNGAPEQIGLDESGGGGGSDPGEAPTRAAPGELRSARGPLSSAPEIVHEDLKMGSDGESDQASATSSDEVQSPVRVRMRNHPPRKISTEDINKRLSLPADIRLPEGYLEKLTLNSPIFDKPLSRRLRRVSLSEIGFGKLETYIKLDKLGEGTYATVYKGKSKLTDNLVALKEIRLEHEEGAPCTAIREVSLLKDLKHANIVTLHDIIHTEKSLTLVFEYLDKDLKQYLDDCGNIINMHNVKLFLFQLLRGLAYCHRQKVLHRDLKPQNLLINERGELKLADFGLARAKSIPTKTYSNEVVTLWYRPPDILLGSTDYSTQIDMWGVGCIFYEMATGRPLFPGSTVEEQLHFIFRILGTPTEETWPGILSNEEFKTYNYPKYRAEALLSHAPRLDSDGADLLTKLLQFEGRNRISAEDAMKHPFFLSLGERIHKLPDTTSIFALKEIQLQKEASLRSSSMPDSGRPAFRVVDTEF

delta Tm Staurosporine positive control [1]	ΔTm [1]	delta Tm Staurosporine positive control [2]	ΔTm [2]	inhibition [3] [%]	delta Tm Staurosporine positive control [4]	ΔTm [4]	delta Tm Staurosporine positive control [5]	ΔTm [5]	delta Tm Staurosporine positive control [6]	ΔTm [6]	delta Tm Staurosporine positive control [7]	ΔTm [7]	delta Tm Staurosporine positive control [8]	ΔTm [8]	delta Tm Staurosporine positive control [9]	ΔTm [9]	delta Tm Staurosporine positive control [10]	ΔTm [10]	inhibition [11] [%]	further results	Structure (SMILES)
1.43	0.845	5.5	-0.126	4.84	6.93	-1.33	7.66	0.443	7.03	-1.44	16.5	0.205	2.51	1.18	0.177	-0.179	7.87	0.458	11.2	delta Tm Staurosporine positive control [12]: 1.03; ΔTm [12]: -0.303; delta Tm Staurosporine positive control [13]: 16.7; ΔTm [13]: -1.06; inhibition [14]: 42%; delta Tm Staurosporine positive control [15]: 9.3; ΔTm [15]: -0.834; inhibition [16]: 0.34%; delta Tm Staurosporine positive control [17]: 7.41; ΔTm [17]: 1.8	C[C@H](NC(=O)c1cn(C2(C#N)CC2)cn1)C(=O)Nc1nc(-c2cccc(-c3ccn(C)n3)c2)cs1
1.43	0.637	5.5	-0.11	10.7	6.93	-1.14	7.66	-0.233	7.03	-1.23	16.5	0.943	2.51	1.43	0.177	0.0215	7.87	0.206	10.2	delta Tm Staurosporine positive control [12]: 1.03; ΔTm [12]: -0.843; delta Tm Staurosporine positive control [13]: 16.7; ΔTm [13]: -0.718; inhibition [14]: 30.4%; delta Tm Staurosporine positive control [15]: 9.3; ΔTm [15]: -0.76; inhibition [16]: 7.45%; delta Tm Staurosporine positive control [17]: 7.41; ΔTm [17]: 0.595	COC[C@H](NC(=O)c1ccn(S(C)(=O)=O)c1)C(=O)Nc1nc(-c2cccc(-c3ccn(C)n3)c2)cs1

— ChEMBL document CHEMBL5303766, “Data for DCP probe FHT-2344” (2022)
